Structures are written as SMILES.

T1 sequence (P28222 whole entry): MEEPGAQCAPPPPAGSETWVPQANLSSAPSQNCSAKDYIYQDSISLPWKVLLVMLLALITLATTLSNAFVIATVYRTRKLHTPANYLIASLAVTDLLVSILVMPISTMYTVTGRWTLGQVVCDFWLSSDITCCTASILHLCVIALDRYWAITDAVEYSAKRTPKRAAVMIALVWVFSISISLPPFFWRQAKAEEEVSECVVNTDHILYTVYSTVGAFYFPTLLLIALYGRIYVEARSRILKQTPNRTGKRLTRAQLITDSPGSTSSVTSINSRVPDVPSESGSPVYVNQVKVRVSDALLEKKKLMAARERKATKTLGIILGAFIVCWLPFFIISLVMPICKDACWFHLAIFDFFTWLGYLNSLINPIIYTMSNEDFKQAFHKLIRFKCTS

The first experiment has as its target T1, 5-HT 1B receptors (Homo sapiens, UniProt P28222).
T1 construct: expressed in transfected cells; host or cells: CHO cells (homogenised in Tris buffer)
Put plainly: 5-HT 1B and 5-HT 1D receptor binding ([3H]-5-HT displacement, CHO cell homogenates). As to conditions: CHO cells expressing receptor; [3H]-5-HT 4 nM; Tris Mg HCl buffer pH 7.7; 37° C., 45 minutes; pKi calculated from IC50. On the procedure: CHO cells expressing 5-HT 1D receptors (0.563×10^8 cells/ml) were homogenised in Tris buffer and stored in 1 ml aliquots. CHO cells expressing 5-HT 1B receptors (4×10^7 cells/ml) were homogenised in Tris buffer and stored in 1.5 ml aliquots. 0.4 ml of a cell suspension was incubated with [^3 H-5-HT (4 nM) in Tris Mg HCl buffer (pH 7.7) and test drug, at 37° C. for 45 minutes. Each test drug was tested at 10 concentrations (0.01 mM to 0.3 nM final concentration), with non-specific binding defined using 0.01 mM 5-HT. The total assay volume was 0.5 ml. Incubation was stopped by rapid filtration using a Packard Filtermate (filters pre-soaked in 0.3% polyethylenimine) and radioactivity measured by Topcount scintillation counting. pKi values were calculated from the IC50 generated by an iterative least squares curve fitting programme.
With `Cc1cc(N2CCCC2=O)ccc1-c1ccc(C(=O)N2CCc3cc4c(cc32)C2(CO4)C[C@@H](C)N(C)[C@@H](C)C2)cc1` (stereo partly drawn) [Example 28, cis-2',6'-dimethyl isomer of 5-[2'-Methyl-4'-(2-oxopyrrolidin-1-yl)biphenyl-4-carbonyl]-2,3,6,7-tetrahydro-1',2',6'-trimethylspiro[furo[2,3-f]indole-3,4'-piperidine]], the “pKi values at 5-HT 1D beta receptors” value is > 8.0.

The same experiment, now with this note: CHO cells expressing receptor; [3H]-5-HT 4 nM; Tris Mg HCl buffer pH 7.7; 37° C., 45 minutes; pKi calculated from IC50; read-out: pKi values at 5-HT 1D beta receptors (converted).
Take `Cc1cc(N2CCOC2=O)ccc1-c1ccc(C(=O)N2CCc3cc4c(cc32)C2(CCN(C)CC2)CO4)cc1` [Example 3, 5-[4'-(4,5-Dihydro-2-oxooxazol-3-yl)-2'-methylbiphenyl-4-carbonyl]-1'-methyl-2,3,6,7-tetrahydrospiro[furo[2,3-f]indole-3,4'-piperidine]]: the Ki is < 10 nM.

With `CC(=O)Nc1ccc(-c2ccc(C(=O)N3CCc4cc5c(cc43)C3(CCN(C)CC3)CO5)cc2)c(C)c1` [Example 4, 5-(4'-Acetamido-2'-methylbiphenyl-4-carbonyl)-1'-methyl-2,3,6,7-tetrahydrospiro[furo[2,3-f]indole-3,4'-piperidine]], the Ki is < 10 nM.

As to `Cc1cc(N2CCNC2=O)ccc1-c1ccc(C(=O)N2CCc3cc4c(cc32)C2(CCN(C)CC2)CO4)cc1` [Example 7], the Ki was < 10 nM.

Turning to `Cc1cc(N2CCN(C)C2=O)ccc1-c1ccc(C(=O)N2CCc3cc4c(cc32)C2(CCN(C)CC2)CO4)cc1` [Example 8], the Ki was < 10 nM.

Turning to `Cc1cc(N2CCC(C)C2=O)ccc1-c1ccc(C(=O)N2CCc3cc4c(cc32)C2(CCN(C)CC2)CO4)cc1` (stereo not drawn) [Example 9], the Ki was < 10 nM.

For the compound `CN1CCC2(CC1)COc1cc3c(cc12)N(C(=O)c1ccc(-c2ccc(N4CCCC4=O)cc2Cl)cc1)CC3` [Example 14], the Ki was < 10 nM.

For the compound `C=CCN1CCC2(CC1)COc1cc3c(cc12)N(C(=O)c1ccc(-c2ccc(N4CCCC4=O)cc2C)cc1)CC3` [Example 24, 1'-Allyl-5-[2'-methyl-4'-(2-oxopyrrolidin-1-yl)biphenyl-4-carbonyl]-2,3,6,7-tetrahydrospiro[furo[2,3-f]indole-3,4'-piperidine]], the Ki is < 10 nM.

For the compound `Cc1cc(N2CCCC2=O)ccc1-c1ccc(C(=O)C2=C3CC4=C(C=C3N=C2)OCC42CCN(C)CC2)cc1` [Example 33, 2,3-Dihydro-1'-methyl-5-[2'-methyl-4'-(2-oxopyrrolidin-1-yl)biphenyl-4-carbonyl]spiro[furo[3,2-f]indole3,4'-piperidine]], the Ki was < 10 nM.

The values above are taken from patent publication US6100272A, “Tetracyclic spiro compounds as 5HT1B receptor antagonists” (SmithKline Beecham p.l.c., priority 1996, dated 2000).
